Experimental data as given in US20130165520A1, “Hybrid Molecule Having Mixed Retinoic Acid Receptor Agonism and Histone Deacetylase Inhibitory Properties” (priority 2010, published 2013).

How the values were obtained:
Assay type in all cases: cell-based
[1] = tested on: normal human mammary epithelial cells (HMEC); assay: Cell growth measurement
MDA-MB-231 = assay: Cell growth measurement; details: 10 days of treatment
Method: (§1) Finally, the effects of 3 on the growth of several breast cancer cell lines [MCF-7 (ER-positive, HER2-negative, RA-sensitive); SkBr3 (ER-negative, HER2-amplified, RA-sensitive); and the normally RA-insensitive MDA-MB-231 (ER-negative, HER2-negative, RA-insensitive)] was assessed.
(§2) Cell Growth Measurement: Cells were plated at 40 k cells per well (6-well plate) in DMEM 5% FBS-T for all cell lines except for I-IMEC cells which were plated in supplemented MEBM from Clonetics. Cells were treated every 48 hours and media was refreshed every 96 hours. After 10 days of treatment cells were harvested in 0.1N NaOH and growth was quantified by analyzing protein content of lysates with a Lowry assay.

MCF-7 = assay: Cell growth measurement; details: 10 days of treatment
Method: as §1, §2

SkBr3 = assay: Cell growth measurement; details: 10 days of treatment
Method: as §1, §2

[2] = tested on: RAR target genes in MCF-7 cell line; assay: RT-qPCR analysis of RAR target genes
Text: (§3) The agonist activity of 3 through its effects on RAR target genes was subsequently analyzed (FIG. 3).

[3] = tested on: RAR target genes in MDA-MB-231 cell line; assay: RT-qPCR analysis of RAR and HDACi target genes; details: MDA-MB-231 cell line
Text: as §3

RARα = molecular target: T1, RARα (Homo sapiens, UniProt P10276); assay: BRET assay of agonist-dependent coactivator recruitment in transfected HEK293 cells; details: 1 μM, 2 hours treatment
T1 sequence (P10276 1-462): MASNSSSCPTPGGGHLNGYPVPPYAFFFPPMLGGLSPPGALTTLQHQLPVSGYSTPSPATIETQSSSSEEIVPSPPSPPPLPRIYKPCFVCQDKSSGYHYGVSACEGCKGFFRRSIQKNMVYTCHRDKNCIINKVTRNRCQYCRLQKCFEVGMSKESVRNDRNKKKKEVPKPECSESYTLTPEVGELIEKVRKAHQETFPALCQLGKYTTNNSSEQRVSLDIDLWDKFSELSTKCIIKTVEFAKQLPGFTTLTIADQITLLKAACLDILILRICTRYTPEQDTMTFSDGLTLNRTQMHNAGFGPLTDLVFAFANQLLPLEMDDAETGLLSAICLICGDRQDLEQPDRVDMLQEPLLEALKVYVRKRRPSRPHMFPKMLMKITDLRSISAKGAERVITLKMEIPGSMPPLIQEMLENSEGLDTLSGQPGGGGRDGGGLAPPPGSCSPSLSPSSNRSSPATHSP
Method: Hybrid 3 was prepared by treatment of the methyl ester of TTNN with excess hydroxylamine under alkaline conditions. The effects of hybrid 3 on RAR were initially assessed using a bioluminescence resonance energy transfer (BRET) assay. The BRET assay monitors agonist-dependent recruitment of coactivators to RARs in transfected HEK293 cells, chosen because of their high degree of transfectability. Energy transfer between luciferase (fused to RARα) and eGFP (fused to the LXXLL coactivator motif) occurs only when these moieties are juxtaposed by the RAR-LXXLL interaction, and can be detected by the emission of green fluorescence.
Cell transfection and BRET assays: HEK293 cells were grown to confluence, trypsinized and plated at a density of 500 k cells per well (12-well plates) in DMEM supplemented with 10% charcoal treated FBS (FBS-T). The following day, cells were transfected with PEI using 0.1 μg of RAR-RLuc vector and 1 μg of LXXLL-eGFP vector. 48 hours post-transfection, cells were treated with retinoids for 2 hours before taking BRET measurements as described previously.

Compound	effect on growth of normal cells [1]	effect on cell growth (MDA-MB-231)	effect on cell growth (MCF-7)	effect on cell growth (SkBr3)	induction of RAR target genes (RT-qPCR) [2]	induction of RAR target genes (RT-qPCR) [3]	RARα agonism (BRET signal) (RARα)
O=C(CCCCCCC(=O)Nc1ccccc1)NO [SAHA, reference compound]	strong inhibition	modest decrease in cell growth	shallow activity	shallow activity	–	–	–
CC1(C)CCC(C)(C)c2cc(-c3ccc4cc(C(=O)O)ccc4c3)ccc21 [TTNN, 6-(5,6,7,8-tetrahydro-5,5,8,8-tetramethyl-2-naphthalenyl)-2-naphthalene carboxylic acid, reference compound]	–	little to no effect	inactive	inactive	no induction of either RARB1 or RARB2	only induce RARB2	agonists of RARα
CC1=C(/C=C/C(C)=C/C=C/C(C)=C/C(=O)O)C(C)(C)CCC1 [ATRA, all-trans-retinoic acid]	–	little to no effect	–	–	no induction of either RARB1 or RARB2	only induce RARB2	agonists of RARα
CN1c2ccccc2N=C(c2ccc(C(=O)O)cc2)c2cc3c(cc21)C(C)(C)CCC3(C)C [HX600]	–	–	–	–	–	–	no increase in BRET signal
